Our source for the IC50 values is US10807994B2, “Heterocyclic compounds and uses thereof” (NUVATION BIO INC., priority 2017, dated 2020).

Counter-ions that a name gives are not always drawn. Like-named read-outs stand apart in the source and are kept apart here. Some results are limits rather than exact numbers.

The test system of assay [1] is A427 cells. The assay is described as follows: Cell proliferation assay (Cell Titer-Glo), A427 cells. In kind it is cell-based. The following applies: Homo sapiens, A-427, typically 72 hrs post-treatment. As to the method:
The effects of test compounds were studied in five cell lines with various histotypes. The cancer cells (Table 4) were harvested during the logarithmic growth period and counted. Adjust cell concentrations to the appropriated number with respective medium, and add 90 μL cell suspensions to 96-well plates. After cells were seeded, the plates were shaken gently to distribute cells evenly and incubated at 37° C., 5% CO2 on day 1.
Cells were treated with test compounds at 9 concentrations within a desired concentration range (e.g. 1.5 nM-10 μM) on day 2 by series diluting the test compound stock solution (10 mM in DMSO) with culture medium. Cell viability was assessed by Cell Titer-Glo® as recommended by Promega (Cat. No.: G7572, Promega) typically 72 hrs post-treatment.
Cell viability data were plotted using GraphPad Prism (version 5, GraphPad Software, Inc., San Diego, Calif.). In addition, a nonlinear regression model with a sigmoidal dose response and variable slope within GraphPad Prism was used to calculate the IC50 value of individual test compounds.
In general terms: ATP-based viability assays read luminescence as a measure of living cells.

The next assay concerns the target WEE1 kinase enzyme (Homo sapiens (Human), UniProt P30291). Put plainly: WEE1 IC50 determination, LanthaScreen Terbium labeled TR-FRET kinase assay. The format is biochemical. The following applies: WEE1 enzyme 1 nM. The procedure: IC50 values of compounds against WEE1 kinase enzyme were determined by LanthaScreen™ Terbium Labeled TR-FRET assay. Kinase assays were performed in 1× kinase buffer (# PV6135, Invitrogen, Life Technologies Grand Island, N.Y.) where total reaction volume was 10 μl in low-volume 384-well plates (#4511, Corning). Serially diluted compounds (3-fold) were incubated with WEE1 Enzyme (1 nM) (# PR7373A, Invitrogen, Life Technologies Grand Island, N.Y.) for 10 min, following which a mixture of ATP […] (# A1852, Sigma, St-Louis, Mo.) and fluorescent-PolyGT substrate (200 nM) (# PV3610, Invitrogen, Life Technologies Grand Island, N.Y.) was added and incubated in dark at room temperature for 1 h. After 1 h, 10 μl stop solution containing Terbium labeled antibody (4 nM) (# PV3529, Invitrogen, Life Technologies Grand Island, N.Y.) and EDTA (# E5134, Sigma, St-Louis, Mo.) (20 mM) in TR-FRET dilution buffer (# PV3574, Invitrogen, Life Technologies Grand Island, N.Y.) was added. Readings were taken in a Synergy Neo Plate reader (BioTek, Winooski) at single excitation of 340 nm and Dual emission at 495 nm and 520 nm respectively.
The % activity of test samples was calculated as (Sample−Min)*100/(Max−Min). [Max: DMSO control, complete reaction with enzyme & DMSO and Min: No enzyme & DMSO]. Percent inhibition (100-% activity) was fitted to the “four-parameter logistic model” in XLfit for determination of IC50 values.
(In general: Time-resolved FRET reads energy transfer from a long-lived donor to a nearby acceptor.)

Assay [2] has as its system A427 cells. The assay is described as follows: Cytotoxicity assay (resazurin), A427 cells, 72 hr. In kind it is cell-based. The procedure: (§1) A549 (CCL-185; ATCC) and A427 (HTB-53; ATCC), both lung epithelial cell lines were seeded in their respective medium (DMEM/MEM, 10569044/41090101; Gibco) at a cell count of 1500 cells per 100 μL per well in a 96 well edge plate (167425; ThermoFisher). Cells were allowed to grow at 37° C. for 24 hr in 5% CO2 environment (culture conditions) in a Nuaire incubator (humidified). Serially diluted test compounds (100 μL) within the desired testing concentration ranges were added to the culture plate were further incubated in culture conditions for 72 hr and 96 hr for A427 and A549 respectively. The experiment was terminated at the designated incubation time by replacing the medium with 100 μL of 1 mM of resazurin (R7017; Sigma) prepared in respective culture medium, and the plates were further incubated in culture conditions for 4-6 hr. Fluorescence was recorded using a multimodal plate reader (Biotek Synergy Neo) at an excitation wavelength of 535 nm and emission wavelength of 590 nm to obtain relative fluorescence units. Data analysis was done by subtracting the background fluorescence (only medium blank) value from each reading and then normalizing with the vehicle control (DMSO treated cells) to obtain percent survival/proliferation. Percent survival was then subtracted by 100 to get the percent inhibition of proliferation which was used to calculate IC50 values. Potency of compounds in other cell lines (As-Pc-1, Panc-10.05, MDAMB231, A172) was determined in an analogous manner.

The subject of the next assay is A549 cells. The assay is described as follows: Cytotoxicity assay (resazurin), A549 cells, 96 hr. In kind it is cell-based. The following applies: read-out: Cell Viability A549 IC50. The procedure:
as §1
In general terms: Alamar Blue is a resazurin reagent that responds to reducing activity.

Assay [3] has as its system A427 cells. The assay is described as follows: Cell viability in combination with cisplatin in A427 cells (resazurin). The following applies: Homo sapiens, A-427, 24 hr 2.5 μM cisplatin. In kind it is cell-based. As to the method: The activity of test compounds in combination with cisplatin in A427 cells was determined. Cells were seeded in a 96 well plate at 2000 cells/well. The next day, cells were treated with 2.5 μM cisplatin or vehicle (1×PBS) and incubated in culture conditions (37° C., 5% CO2) for 24 hr. Following the incubation, culture medium was replaced with medium containing test compound and cisplatin/vehicle, and cells were further incubated in culture conditions for another 72 hr. By this procedure, cisplatin was either continued or discontinued after an initial 24-hr incubation. Addition of test compound was in concentrations needed to obtain an 8-point dose response curve, with concentrations prepared by 3-fold dilution. The assay was terminated upon addition of resazurin, incubation for 4 hr in culture conditions and measurement of fluorescence at excitation and emission wavelengths of 535 and 590 nm, respectively.

Where [4] appears, read: Homo sapiens, A-427, read-out: Cell Viability A427 IC50.

Sequence of WEE1 kinase enzyme (P30291 whole entry): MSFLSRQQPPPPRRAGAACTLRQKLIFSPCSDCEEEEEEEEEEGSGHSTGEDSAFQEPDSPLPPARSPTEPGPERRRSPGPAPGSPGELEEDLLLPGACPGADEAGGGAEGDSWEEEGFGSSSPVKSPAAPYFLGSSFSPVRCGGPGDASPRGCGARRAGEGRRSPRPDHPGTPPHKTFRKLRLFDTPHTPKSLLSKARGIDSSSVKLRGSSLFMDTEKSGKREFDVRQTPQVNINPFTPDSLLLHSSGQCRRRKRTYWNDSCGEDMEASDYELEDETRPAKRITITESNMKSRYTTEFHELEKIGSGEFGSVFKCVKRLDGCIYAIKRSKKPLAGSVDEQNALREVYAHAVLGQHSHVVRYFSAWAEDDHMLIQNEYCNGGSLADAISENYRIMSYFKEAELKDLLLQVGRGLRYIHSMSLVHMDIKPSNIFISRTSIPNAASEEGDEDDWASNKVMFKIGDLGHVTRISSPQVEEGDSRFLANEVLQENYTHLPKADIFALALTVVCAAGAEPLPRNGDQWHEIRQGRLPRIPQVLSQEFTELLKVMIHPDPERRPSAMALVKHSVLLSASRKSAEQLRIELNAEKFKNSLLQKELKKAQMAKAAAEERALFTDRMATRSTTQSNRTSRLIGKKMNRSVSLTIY

For orientation: IC50 means the concentration at which inhibition is half-maximal. Consider `O=C1c2cnc(Nc3ccc(N4CCNCC4)cc3)nc2OCN1c1c(Cl)cccc1Cl` [Example 1.5], for which the IC50 in the assay on A427 cells [1] came out at 4.29 µM; at WEE1 kinase enzyme, 0.069 µM; in the assay with A427 cells [2] (setting [4]), 3.91 µM; with A549 cells (Homo sapiens), 3.78 µM.
Regarding `O=C1c2cnc(Nc3ccc(N4CCNCC4)c(CO)c3)nc2OCN1c1c(Cl)cccc1Cl` [Example 1.16], the 50% inhibitory concentration (IC50) in the assay with A427 cells [1] was 3.04 µM; in the assay with A427 cells [3] (then compound + cisplatin 72 hr, read-out: Cell viability IC50 in A427 cells with 2.5 μM cisplatin: 24 hr cisplatin then compound + cisplatin) it was below 0.014 µM; in the assay with A427 cells [3] (then compound alone 72 hr, read-out: Cell viability IC50 in A427 cells with 2.5 μM cisplatin: 24 hr cisplatin then compound), 0.18 µM; on WEE1 kinase enzyme, 0.049 µM; in the assay with A427 cells [2] (setting [4]), 2.13 µM; in the assay with A549 cells (Homo sapiens), 3.98 µM.
For the molecule `CN1CCN(c2ccc(Nc3ncc4c(n3)OCN(c3c(Cl)cccc3Cl)C4=O)cc2CO)CC1` [Example 1.20], the concentration for half-maximal inhibition (IC50) with A427 cells [1] was 3.64 µM; at WEE1 kinase enzyme, 0.048 µM; in the assay on A427 cells [2] (setting [4]) it was 5.5 µM; with A549 cells (Homo sapiens), 6.02 µM.
Regarding `O=C1c2cnc(Nc3ccc(N4CCNCC4)cc3)nc2OCN1c1c(F)cccc1Cl` [Example 1.27], the IC50 with A427 cells [1] was determined as 7.75 µM; on WEE1 kinase enzyme, 0.052 µM; in the assay on A427 cells [2] (setting [4]) it was 6.97 µM; with A549 cells (Homo sapiens), 4.39 µM.
Regarding `O=C1c2cnc(Nc3ccc(C4CCNCC4)c(CO)c3)nc2OCN1c1c(Cl)cccc1Cl` [Example 1.34, 3-(2,6-dichlorophenyl)-7-(3-(hydroxymethyl)-4-(piperidin-4-yl)phenylamino)-2H-pyrimido[5,4-e][1,3]oxazin-4(3H)-one], the IC50 is 0.014 µM at WEE1 kinase enzyme, 4.81 µM in the assay on A427 cells [2] (read-out: Cell Viability A427 IC50) and 21 µM in the assay on A549 cells.
As for `O=C1c2cnc(Nc3ccc(N4CCNCC4)nc3)nc2OCN1c1c(Cl)cccc1Cl` [Example 1.36, 3-(2,6-dichlorophenyl)-7-((6-(piperazin-1-yl)pyridin-3-yl)amino)-2,3-dihydro-4H-pyrimido[5,4-e][1,3]oxazin-4-one], the IC50 came to 0.104 µM at WEE1 kinase enzyme, 10.4 µM in the assay with A427 cells [2] (setting [4]) and 8.12 µM in the assay with A549 cells (Homo sapiens).
`O=C1c2cnc(Nc3ccc(N4CCNCC4)c(Cl)c3)nc2OCN1c1c(Cl)cccc1Cl` [Example 1.40, 7-(3-chloro-4-(piperazin-1-yl)phenylamino)-3-(2,6-dichlorophenyl)-2H-pyrimido[5,4-e][1,3]oxazin-4(3H)-one]: the IC50 at WEE1 kinase enzyme worked out at 0.02 µM; in the assay with A427 cells [2] (setting [4]), 2.65 µM; in the assay with A549 cells (Homo sapiens), 2.73 µM.
Taken in the same sequence, the figures for `CN1CCC(c2ccc(Nc3ncc4c(n3)OCN(c3c(Cl)cccc3Cl)C4=O)cc2CO)CC1` [Example 1.42, 3-(2,6-dichlorophenyl)-7-(3-(hydroxymethyl)-4-(1-methylpiperidin-4-yl)phenylamino)-2H-pyrimido[5,4-e][1,3]oxazin-4(3H)-one] were 0.025 µM, 3.2 µM and 5.6 µM.
As for `C[C@@H]1CN[C@@H](C)CN1c1ccc(Nc2ncc3c(n2)OCN(c2c(Cl)cccc2Cl)C3=O)cc1` [Example 1.47, 3-(2,6-dichlorophenyl)-7-(4-((2R,5S)-2,5-dimethylpiperazin-1-yl)phenylamino)-2H-pyrimido[5,4-e][1,3]oxazin-4(3H)-one hydrochloride], the 50% inhibitory concentration (IC50) on WEE1 kinase enzyme amounted to 0.07 µM; in the assay with A427 cells [2] (setting [4]), 7.1 µM; with A549 cells (Homo sapiens) it was 4.1 µM.
For the molecule `CNCCOc1ccc(Nc2ncc3c(n2)OCN(c2c(Cl)cccc2Cl)C3=O)cc1` [Example 1.48, 3-(2,6-dichlorophenyl)-7-(4-(2-(methylamino)ethoxy)phenylamino)-2H-pyrimido[5,4-e][1,3]oxazin-4(3H)-one], the half-maximal inhibitory concentration (IC50) is 0.103 µM on WEE1 kinase enzyme, 11.1 µM with A427 cells [2] (setting [4]) and 8.38 µM with A549 cells (Homo sapiens).
As to `C[C@@H]1CNCCN1c1ccc(Nc2ncc3c(n2)OCN(c2c(Cl)cccc2Cl)C3=O)cc1` [Example 1.49, (R)-3-(2,6-dichlorophenyl)-7-(4-(2-methylpiperazin-1-yl)phenylamino)-2H-pyrimido[5,4-e][1,3]oxazin-4(3H)-one], the results for the IC50 at WEE1 kinase enzyme, in the assay on A427 cells [2] (setting [4]) and in the assay with A549 cells (Homo sapiens) were 0.041 µM, 5.42 µM and 4.39 µM, respectively.
Regarding `COc1cc(Nc2ncc3c(n2)OCN(c2c(Cl)cccc2Cl)C3=O)ccc1C1CCNCC1` [Example 1.50, 3-(2,6-dichlorophenyl)-7-(3-methoxy-4-(piperidin-4-yl)phenylamino)-2H-pyrimido[5,4-e][1,3]oxazin-4(3H)-one], the IC50 on WEE1 kinase enzyme is 0.028 µM; in the assay with A427 cells [2] (setting [4]), 3.48 µM; with A549 cells (Homo sapiens), 2.79 µM.
`CN1CCC(c2ccc(Nc3ncc4c(n3)OCN(c3c(Cl)cccc3Cl)C4=O)cc2)CC1` [Example 1.52, 3-(2,6-dichlorophenyl)-7-(4-(1-methylpiperidin-4-yl)phenylamino)-2H-pyrimido[5,4-e][1,3]oxazin-4(3H)-one]: the IC50 on WEE1 kinase enzyme stood at 0.0505 µM; in the assay on A427 cells [2] (setting [4]), 3.35 µM; in the assay on A549 cells (Homo sapiens) it was 4.72 µM.
Taken in the same sequence, the figures for `CNCCNc1ccc(Nc2ncc3c(n2)OCN(c2c(Cl)cccc2Cl)C3=O)cc1` [Example 1.54, 3-(2,6-dichlorophenyl)-7-(4-(2-(methylamino)ethylamino)phenylamino)-2H-pyrimido[5,4-e][1,3]oxazin-4(3H)-one Hydrochloride] were 0.2 µM, 10.5 µM and 9.58 µM.
Taken in the same sequence, the figures for `O=C1c2cnc(Nc3ccc(N4CCCC4)cc3)nc2OCN1c1c(Cl)cccc1Cl` [Example 1.56, 3-(2,6-dichlorophenyl)-7-(4-(pyrrolidin-1-yl)phenylamino)-2H-pyrimido[5,4-e][1,3]oxazin-4(3H)-one] were above 5 µM, 10.5 µM and 1.86 µM.
For the molecule `CNCC(=O)N1CCN(c2ccc(Nc3ncc4c(n3)OCN(c3c(Cl)cccc3Cl)C4=O)cc2)CC1` [Example 1.57, 3-(2,6-dichlorophenyl)-7-(4-(4-(2-(methylamino)acetyl)piperazin-1-yl)phenylamino)-2H-pyrimido[5,4-e][1,3]oxazin-4(3H)-one hydrochloride], the IC50 on WEE1 kinase enzyme was 0.101 µM; in the assay on A427 cells [2] (setting [4]) it was 4.86 µM; in the assay with A549 cells (Homo sapiens), 6.23 µM.
Turning to `O=C1c2cnc(Nc3ccc(N4CCN(CCO)CC4)cc3)nc2OCN1c1c(Cl)cccc1Cl` [Example 1.58, 3-(2,6-dichlorophenyl)-7-(4-(4-(2-hydroxyethyl)piperazin-1-yl)phenylamino)-2H-pyrimido[5,4-e][1,3]oxazin-4(3H)-one], the 50% inhibitory concentration (IC50) on WEE1 kinase enzyme worked out at 0.234 µM; in the assay with A427 cells [2] (setting [4]), 7.12 µM; in the assay with A549 cells (Homo sapiens) it was 12.3 µM.
